From US20040219123A1, “Invert emulsions comprising DHEA” (GALDERMA RESEARCH & DEVELOPMENT, S.N.C., priority 2001, published 2004)

Legend:
[1] = Maximum solubility of DHEA in lipophilic excipients (12 h stirring with excess active, filtration, HPLC); type: physicochemical; details: room temperature
Description: In Table 1 are various examples showing the low solubility of DHEA in a lipophilic phase:
These maximum solubilities of DHEA were measured after stirring for 12 h with a magnetic stirrer bar, at room temperature, with an excess of active ingredient in the excipient to be analyzed. The suspension is then filtered (1.2 μm) and then the filtrate is assayed by HPLC.
Above the concentration measured, there is recrystallization of the DHEA at room temperature.

[2] = cited from earlier work

C[C@]12CC[C@H](O)CC1=CC[C@@H]1[C@@H]2CC[C@]2(C)C(=O)CC[C@@H]12 [DHEA, 3-beta-hydroxyandrosteron-5-en-17-one]
Solubility (% w/w) ([1]; in Caprylic/capric triglycerides): 1.77% w/w
Solubility (% w/w) ([1]; in Cetearyl isononanoate): 0.83% w/w
Solubility (% w/w) ([1]; in Cyclomethicone): 0.04% w/w
Solubility (% w/w) ([1]; in Dimethicone): 0.17% w/w
Solubility (% w/w) ([1]; in Isopropyl palmitate): 1.37% w/w
Solubility (% w/w) ([1]; in Mineral oil): 1.00% w/w
Solubility (% w/w) ([1]; in Octyl palmitate): 1.00% w/w
Solubility (% w/w) ([1]; in Sesame oil): 1.40% w/w
Solubility (% w/w) ([1]; in Squalane): 0.10% w/w
maximum solubility in water [2]: 20 µg/mL
